This passage reports mortality, LC50 and LD50 results from US4570005A, “Process for the preparation of 2-arylpropyl ether or thioether derivatives” (priority 1980, dated 1986).

Series [1] relates to tobacco cutworm. Put plainly: Test 2: Tobacco Cutworm Larva Dipping Test, mortality after 24 hours. Type of series: in vivo. Particulars: 24 hours. The gist of the method: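 Second- and fifth-instar larvae dipped 5 s in a water dilution of an emulsifiable concentrate at 100 or 20 ppm, blotted, then held on artificial diet at 25° C. Dead and living larvae counted after 24 hours; mortality averaged over three cups.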

Another series relates to diamond back moth. Put plainly: Test 4: Effect on Diamond Back Moth. The format is in vivo. The following applies: Plutella, third-instar larvae, 24 hours, read-out: Mortality (%). Put shortly:
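Compound formulated as an emulsifiable concentrate, diluted in water to 100 or 20 ppm and sprayed at 3 ml per cup onto cabbage leaves holding 10 third-instar larvae. Mortality counted after 24 hours; mean of three cups.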

In a further series the test system is green peach aphid. Put plainly: Test 5: Effect on Green Peach Aphid. The following applies: Myzus persicae; 100 ppm; mortality class; 24 hours; read-out: Insecticidal Activity. The format is in vivo. The gist of the method: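 Eggplant seedlings with 3–4 leaves were infested with aphids and sprayed with a 100 ppm aqueous dilution of an emulsifiable concentrate, then kept in a glasshouse. Living insects were counted after 24 h. Mortality is averaged over three pots and graded A (>95%), B (80–95%), C (50–80%) or D (<50%).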

A further series concerns two-spotted spider mite. Put plainly: Test 6: Effect on Two-Spotted Spider mite Adults. The format is in vivo. Particulars: Tetranychus urticae; 100 ppm; adults; 24 hours; 25° C; read-out: Mortality (%). The method, then: To a mixture of 20 parts of the compound of the present invention and 20 parts of Sorpol SM-200 (registered tradename for the product supplied by Toho Chemical Industrial Co., Ltd.) was added 60 parts of xylol, and the mixture was suffciently blended. The obtained emulsifiable concentrate was diluted at a predetermined concentration with distilled water, and the obtained dilution was used.
A kidney bean leaf disc perforated with a cork borer (15 mm in diameter) was placed on water-impregnated absorbent cotton (2 cm×2 cm), and 10 adults of two-spotted spider mite were set free. A chemical dilution having a concentration of 100 ppm was applied with an applicator in an amount of 3 ml.
The leaf disc-placed absorbent cotton was placed in a thermostat chamber maintained at 25° C. After 24 hours, the number of killed adults was counted and the mortality was calculated. The test was made on three leaf discs and the average value was calculated.

Series [2] has as its system resistant green rice leafhopper (collected at Nakagawara). Put plainly: Test 3: Effect on Resistant Green Rice Leafhopper (collected at Nakagawara). Type of series: in vivo, Nephotettix cincticeps Uhler (Green rice leafhopper). Particulars: Nephotettix cincticeps, 24 h, read-out: Mortality (%), Green Rice Leafhopper Collected at Nakagawara. The gist of the method: (§1)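 Emulsifiable concentrate diluted to 100 or 20 ppm was sprayed, 3 ml per pot, onto hydroponic rice seedlings at 2–3 leaves. After air-drying, 10 female adults of the Nakagawara (resistant) or Chigasaki (sensitive) strain were released per caged pot. Mortality was counted at 24 h and averaged over three pots.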

For series [3], the system named is sensitive green rice leafhopper (collected at Chigasaki). Put plainly: whole plant or invertebrate. The format is in vivo. The following applies: Nephotettix cincticeps, sensitive female adults, 24 hours, read-out: Mortality (%), Green Rice Leafhopper Collected at Chigasaki. Put shortly:
as §1

The test system of the next series is German cockroach. Put plainly: Test 7: Effect on German Cockroach. Type of series: in vivo. The following applies: Blattella germanica, male adults, agonized and killed after 24 hours, read-out: Mortality (%); for mortality at 10 mg/m2: 10 mg/m^2; for mortality at 50 mg/m2: 50 mg/m^2. Put shortly:
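Petri dish floors were treated with 50 or 10 mg/m2 of compound (diluted emulsifiable concentrate) and air-dried. Ten male adult German cockroaches per dish were held at 25° C. Agonized and dead insects were counted after 24 hours, averaging two dishes.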

The nature of another series: Test 8: Fish Toxicity. Type of series: in vivo. Particulars: carp, water; concentration at which 1/2 of the test fishes were killed within 48 hours; read-out: Fish Toxicity, TLm48. How it is done:
A water tank having a width of 60 cm, a length of 30 cm and a height of 40 cm was filled with water, and 10 yearling carps having a body length of about 5 cm were set free in the tank and adapted to the environment in the tank. A test compound was applied so that the concentration in water was 10, 1 or 0.1 ppm. After 48 hours, the numbers of killed and living carps were counted and the influences on the fishes were examined.

Series [4] is described as follows: Test 9: Toxicity Test (acute oral toxicity, mice). Particulars: mouse, in vivo, po. How it is done:
A predetermined amount of a solution or suspension of a test compound in corn oil was orally administered to male mice having a body weight of 19 to 23 g (0.2 ml per 10 g of the body weight). After 7 days, the number of killed mice was counted and the influences on the mice were examined.

Series [5] deals with tobacco cutworm. Put plainly: Test 1: Effect on Tobacco Cutworm (leaf immersion), mortality after 24 hours. The format is in vivo. The following applies: second-instar larvae, 25° C. The gist of the method:
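Sweet-potato leaves dipped 10 s in emulsifiable concentrate diluted to 100 or 20 ppm, air-dried, then exposed to second-instar larvae at 25 °C. Mortality counted after 24 h, averaged over three cups.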

Setting [6] is: fifth-instar larvae, read-out: Motality (%), Fifth-Instar Larvae.
[7] abbreviates: second-instar larvae, read-out: Motality (%), Second-Instar Larvae.

Take `CC(C)C(COCc1cccc(Oc2ccccc2)c1)c1ccc(Cl)cc1` (stereo not drawn) [Comparative Compound (b), reference compound]: the mortality at 100 ppm is 0% with tobacco cutworm [1] (setting [6]); 0% in the series with tobacco cutworm [1] (setting [7]); 30% in the series on diamond back moth; less than 50% in the series on green peach aphid; 20% in the series on two-spotted spider mite. In the series with diamond back moth, the mortality at 20 ppm was 10%.
With `COc1ccc(C(C)(C)COCc2cccc(Oc3ccccc3)c2)cc1` [Compound 1, 3-Phenoxybenzyl 2-(4-methoxyphenyl)-2-methyl propyl ether], the mortality at 20 ppm in series [2] and in [3] was 100% throughout. For the same molecule, the mortality at 100 ppm in series [2] was 100%; in series [3], 100%; in the series on green peach aphid, 80 to 95%; in the series on two-spotted spider mite it was 100%. The mortality at 10 mg/m2 in the series with German cockroach is 100%. The mortality at 50 mg/m2 in the series with German cockroach turned out to be 100%. The LC50 at 48 h in “Test 8: Fish Toxicity” is greater than 10 µg/mL. Besides, the LD50 at 168 h in series [4] was greater than 500 mg/kg.
Consider `CC(C)(COCc1cccc(Oc2ccccc2)c1)c1ccccc1` [Compound 5, 3-Phenoxybenzyl 2-phenyl-2-methylpropyl ether], for which the mortality at 20 ppm in series [2] and in series [3] was 100% in each case. Also, the mortality at 100 ppm was 100% in [2], 100% in [3], greater than 95% in the series with green peach aphid and 100% in the series on two-spotted spider mite. The mortality at 10 mg/m2 in the series on German cockroach turned out to be 80%. Further, the mortality at 50 mg/m2 in the series with German cockroach is 100%. This molecule had a 50% lethal dose (LD50) at 168 h in series [4] greater than 500 mg/kg.
On to `CC(C)(COCc1cccc(Oc2ccccc2)c1)c1ccc(OC(F)F)cc1` [Compound 18, 3-phenoxybenzyl 2-(4-difluoromethoxyphenyl)-2-methylpropyl ether], for which the mortality at 20 ppm (in the series with tobacco cutworm [5]; in the series with tobacco cutworm [1] (setting [6]); in the series with tobacco cutworm [1] (setting [7]); in [2]; in series [3]; with diamond back moth) was 100% in each case. Besides, the mortality at 100 ppm (in the series with tobacco cutworm [5]; in the series on tobacco cutworm [1] (setting [6]); with tobacco cutworm [1] (setting [7]); in series [2]; in [3]; with diamond back moth) was 100% throughout. Further, the mortality at 100 ppm in the series on green peach aphid is greater than 95%; in the series on two-spotted spider mite, 100%. Moreover, the mortality at 10 mg/m2 in the series with German cockroach worked out at 100%. In addition, in the series with German cockroach, the mortality at 50 mg/m2 turned out to be 100%. For the same molecule, the LD50 at 168 h in [4] was greater than 500 mg/kg.
On to `CC(C)(CSCc1cccc(Oc2ccccc2)c1)c1ccc(Cl)cc1` [Compound 20, 3-Phenoxybenzyl 2-(4-chlorophenyl)-2-methylpropyl thioether], for which the mortality at 20 ppm amounted to 100% in the series with tobacco cutworm [5]; 80% in the series with tobacco cutworm [1] (setting [6]); 90% in the series with tobacco cutworm [1] (setting [7]); 80% in series [2]; 50% in series [3]; 100% with diamond back moth. Further, the mortality at 100 ppm (in the series on tobacco cutworm [5]; in the series on tobacco cutworm [1] (setting [6]); in the series with tobacco cutworm [1] (setting [7]); in [2]; in series [3]; in the series with diamond back moth) was 100% throughout. Also, the mortality at 100 ppm in the series on green peach aphid is greater than 95%; in the series on two-spotted spider mite it was 100%. For the same molecule, the LC50 at 48 h in the series “Test 8: Fish Toxicity” was greater than 10 µg/mL. Moreover, the 50% lethal dose (LD50) at 168 h in series [4] was greater than 500 mg/kg.
Regarding `COc1ccc(Oc2cccc(COCC(C)(C)c3ccc(Cl)c(Cl)c3)c2)cc1` [Compound 41, 3-(4-methoxyphenoxy)benzyl 2-(3,4-dichlorophenyl)-2-methylpropyl ether], the mortality at 20 ppm in series [2] and in series [3] was 100% throughout. Besides, the mortality at 100 ppm in series [2] was 100%; in series [3], 100%; with green peach aphid it was greater than 95%; in the series on two-spotted spider mite it was 100%. Further, the mortality at 10 mg/m2 in the series with German cockroach stood at 100%. For the same molecule, the mortality at 50 mg/m2 in the series with German cockroach came out at 100%. Further, the LC50 at 48 h in the series “Test 8: Fish Toxicity” is greater than 10 µg/mL. Moreover, the LD50 at 168 h in series [4] is greater than 500 mg/kg.
Consider `CCCOc1ccc(C(C)(C)COCc2cccc(Oc3ccccc3)c2)cc1` [Compound 57, 3-Phenoxybenzyl 2-[4-(n-propoxy)phenyl]-2-methylpropyl ether], for which the mortality at 20 ppm in the series with tobacco cutworm [5] stood at 100%; in [2], 100%; in series [3], 100%; with diamond back moth it was 75%. Moreover, the mortality at 100 ppm is 100% in the series with tobacco cutworm [5]; 100% in series [2]; 100% in series [3]; 100% with diamond back moth; greater than 95% in the series on green peach aphid; 90% in the series with two-spotted spider mite. Also, in [4], the LD50 at 168 h is greater than 500 mg/kg.
Take `CC(C)Oc1ccc(C(C)(C)COCc2cccc(Oc3ccccc3)c2)cc1` [Compound 59, 3-Phenoxybenzyl 2-(4-isopropoxyphenyl)-2-methylpropyl ether]: the mortality at 20 ppm in the series on tobacco cutworm [1] (setting [6]) turned out to be 100%; in the series with tobacco cutworm [1] (setting [7]), 100%; in [2] it was 100%; in series [3], 100%; in the series on diamond back moth it was 85%. Besides, the mortality at 100 ppm with tobacco cutworm [1] (setting [6]) was 100%; with tobacco cutworm [1] (setting [7]), 100%; in series [2], 100%; in [3], 100%; in the series with diamond back moth it was 100%; in the series with green peach aphid, greater than 95%. In addition, in the series with two-spotted spider mite, the mortality at 100 ppm was 100%. In the series on German cockroach, the mortality at 10 mg/m2 amounted to 100%. In addition, the mortality at 50 mg/m2 in the series on German cockroach was found to be 100%. Moreover, the median lethal dose (LD50) at 168 h in series [4] was greater than 500 mg/kg.
In the case of `CCCCOc1ccc(C(C)(C)COCc2cccc(Oc3ccccc3)c2)cc1` [Compound 69, 3-Phenoxybenzyl 2-[4-(n-butoxy)phenyl]-2-methylpropyl ether], the mortality at 100 ppm with green peach aphid is greater than 95%; in the series with two-spotted spider mite, 60%. In addition, the LC50 at 48 h in “Test 8: Fish Toxicity” is greater than 1 µg/mL. The molecule also returned a median lethal dose (LD50) at 168 h in series [4] greater than 500 mg/kg.
The matching figures for `CC(C)(C)c1ccc(C(C)(C)COCc2cccc(Oc3ccccc3)c2)cc1` [Compound 105, 3-Phenoxybenzyl 2-(4-tert-butylphenyl)-2-methylpropyl ether]: 80 to 95%, 100%, greater than 1 µg/mL and greater than 500 mg/kg.

The LD50 is the dose expected to kill half of the subjects tested. A higher LD50 goes with a less toxic substance.
